This test has as its target T1, Human Factor D (Homo sapiens, UniProt P00746).
T1 construct: purified from human serum; purchased Complement Technology, Inc; host or cells: human serum (natural protein, not recombinant)
Kind of test: Human Factor D assay (Z-L-Lys-SBzl/DTNB, absorbance at 405 nm). Type of test: biochemical. The following applies: Human Factor D 80 nM, purified from human serum, substrate Z-L-Lys-SBzl. How it is done:
Example 44. Human Factor D Assay
Human Factor D (purified from human serum, Complement Technology, Inc.) at 80 nM final concentration was incubated with test compound at various concentrations for 5 minutes at room temperature in 50 mM Tris, 1M NaCl, pH 7.5. A synthetic substrate Z-L-Lys-SBzl and DTNB (Ellman's reagent) are added to final concentrations of 100 µM each. Absorbance at 405 nm (A405) was recorded at 30 second intervals for 30 minutes using a microplate spectrophotometer. IC50 values are calculated by nonlinear regression of complement Factor D reaction rates as a function of test compound concentration.

Setting [1] is: Table 3, read-out: IC50 (Stars).

pIC50: −log10 of the molar value. Read-outs that look alike come from different tables or passages of the source.

T1 sequence (P00746 26-253): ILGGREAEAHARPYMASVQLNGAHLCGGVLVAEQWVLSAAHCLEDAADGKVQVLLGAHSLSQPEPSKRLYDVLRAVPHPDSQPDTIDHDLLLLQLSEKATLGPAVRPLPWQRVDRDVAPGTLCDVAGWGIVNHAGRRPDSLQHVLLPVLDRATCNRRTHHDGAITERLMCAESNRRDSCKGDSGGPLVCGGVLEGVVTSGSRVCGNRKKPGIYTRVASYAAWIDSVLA

As for `CC(=O)c1cn(CC(=O)N2C[C@H](F)C[C@H]2C(=O)NCCCCc2ccccc2)c2ccc(P(=O)(O)O)cc12` [Compound 87, (3-acetyl-1-(2-((2S,4R)-4-fluoro-2-((4-phenylbutyl)carbamoyl)pyrrolidin-1-yl)-2-oxoethyl)-1H-indol-5-yl)phosphonic acid], the negative-log IC50 (pIC50) under setting [1] is below 5.00. `CCOP(=O)(OCC)c1nc2c(s1)c(C(N)=O)nn2CC(=O)N1C[C@H](F)C[C@H]1C(=O)Nc1cccc(C)n1` [Compound 146]: the negative logarithm of the IC50 (pIC50) under setting [1] was below 5.00. For `CC(=O)c1cn(CC(=O)N2C[C@H](F)C[C@H]2C(=O)NCc2cccc(Cl)c2F)c2cc(P(=O)(O)OCC(F)(F)F)ccc12` [Compound 29, 2,2,2-trifluoroethyl hydrogen 3-acetyl-1-(2-((2S,4R)-2-(3-chloro-2-fluorobenzylcarbamoyl)-4-fluoropyrrolidin-1-yl)-2-oxoethyl)-1H-indol-6-ylphosphonate], for the setting “Table 1, read-out: IC50”, the pIC50 is above 6.00. For `CCOP(=O)(OCC)c1nc2c(s1)c(C(N)=O)nn2CC(=O)N1C[C@H](F)C[C@H]1C(=S)NC1CCC(c2cc3sccc3s2)C1` (some centres unmarked) [Compound 148], the negative logarithm of the IC50 (pIC50) under setting [1] was below 5.00. Still for that read-out and setting: to `CC(=O)c1cn(CC(=O)N2CC[C@H]2C(=O)Nc2cccc(C)n2)c2ccc(P(=O)(O)O)cc12` [Compound 101, (S)-(3-acetyl-1-(2-(2-((6-methylpyridin-2-yl)carbamoyl)azetidin-1-yl)-2-oxoethyl)-1H-indol-5-yl)phosphonic acid] belongs below 5.00.
